For one experiment, the target named is T1, human CYP11B2 (Homo sapiens, UniProt P19099).
T1 construct: expressed in transfected cells
T1 sequence (P19099 25-503): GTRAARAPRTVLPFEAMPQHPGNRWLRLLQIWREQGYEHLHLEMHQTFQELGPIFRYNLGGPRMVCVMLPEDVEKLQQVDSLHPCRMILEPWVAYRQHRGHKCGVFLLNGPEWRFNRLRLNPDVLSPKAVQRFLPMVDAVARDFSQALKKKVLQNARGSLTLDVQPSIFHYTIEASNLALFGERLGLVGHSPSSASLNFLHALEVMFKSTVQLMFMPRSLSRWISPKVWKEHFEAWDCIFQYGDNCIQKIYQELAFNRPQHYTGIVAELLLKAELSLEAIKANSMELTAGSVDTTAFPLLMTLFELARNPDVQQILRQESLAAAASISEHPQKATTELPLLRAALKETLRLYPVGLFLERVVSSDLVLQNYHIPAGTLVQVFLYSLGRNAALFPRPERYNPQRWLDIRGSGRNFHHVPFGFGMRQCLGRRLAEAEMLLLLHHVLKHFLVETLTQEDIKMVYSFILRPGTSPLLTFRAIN
The experiment can be described thus: G-402 cellular enzyme assay, human CYP11B2 (aldosterone release, HTRF). The format is cell-based. As to conditions: G-402 cells, 1 μM Deoxycorticosterone. The source says: (§1) Herein we identified the use of the G-402 cell line as a host cell to ectopically express (transiently or stably) enzymes of the CYP11 family. Specifically we developed stable G-402 cells expressing ectopically human CYP11B1, human CYP11B2, human CYP11A1, cynmolgus CYP11B1 or cynomolgus CYP11B2 enzyme activity. Importantly the identified cell line G-402 expresses co-factors (adrenodoxin and adrenodoxin reductase) important for the activity of the CYP11 family and no relevant enzyme activity of the CYP11 family (in comparison to H295R cells) was detected in these cells. Therefore the G-402 cell line is uniquely suited as a host cell for the ectopic expression of enzymes from the CYP11 family.
(§2) G-402 cells can be obtained from ATCC(CRL-1440) and were originally derived from a renal leiomyoblastoma.
(§3) The expression plasmids contain the ORF for either human/cyno CYP11B1 or CYP11B2 under the control of a suitable promoter (CMV-promoter) and a suitable resistance marker (neomycin). Using standard techniques the expression plasmid is transfected into G-402 cells and these cells are then selected for expressing the given resistance markers. Individual cell-clones are then selected and assessed for displaying the desired enzymatic activity using 11-Deoxycorticosterone (Cyp11B2) or 11-Deoxycortisol (Cyp11B1) as a substrate.
(§4) G-402 cells expressing CYP11 constructs were established as described above and maintained in McCoy's 5a Medium Modified, ATCC Catalog No. 30-2007 containing 10% FCS and 400 μg/ml G418 (Geneticin) at 37° C. under an atmosphere of 5% CO2/95% air.
(§5) Cellular enzyme assays were performed in DMEM/F12 medium containing 2.5% charcoal treated FCS and appropriate concentration of substrate (0.3-10 uM 11-Deoxycorticosterone, 11-Deoxycortisol or Corticosterone). For assaying enzymatic activity, cells were plated onto 96 well plates and incubated for 16 h. An aliquot of the supernatant is then transferred and analyzed for the concentration of the expected product (Aldosterone for CYP11B2; Cortisol for CYP11B1). The concentrations of these steroids can be determined using HTRF assays from CisBio analyzing either Aldosterone or Cortisol.
(§6) Inhibition of the release of produced steroids can be used as a measure of the respective enzyme inhibition by test compounds added during the cellular enzyme assay. The dose dependent inhibition of enzymatic activity by a compound is calculated by means of plotting added inhibitor concentrations (x-axes) vs. measured steroid/product level (y-axes). The inhibition is then calculated by fitting the following 4-parameter sigmoidal function (Morgan-Mercer-Flodin (MMF) model) to the raw data points using the least squares method:
(§7) [formula] wherein, A is the maximum y value, B is the EC50 factor determined using XLFit, C is the minimum y value and D is the slope value.
(§8) EC50 values for compounds claimed herein were tested with the G402-based assay system described. Cyp11B2 enzyme activity was tested in presence of 1 μM Deoxycorticosterone and variable amounts of inhibitors; Cyp11B1 enzyme activity was tested in presence of 1 μM Deoxycortisol and variable amounts of inhibitors.
A general note: Time-resolved FRET reads energy transfer from a long-lived donor to a nearby acceptor.

A further experiment deals with T2, human CYP11B1 (Homo sapiens, UniProt P15538).
T2 construct: expressed in transfected cells
T2 sequence (P15538 25-503): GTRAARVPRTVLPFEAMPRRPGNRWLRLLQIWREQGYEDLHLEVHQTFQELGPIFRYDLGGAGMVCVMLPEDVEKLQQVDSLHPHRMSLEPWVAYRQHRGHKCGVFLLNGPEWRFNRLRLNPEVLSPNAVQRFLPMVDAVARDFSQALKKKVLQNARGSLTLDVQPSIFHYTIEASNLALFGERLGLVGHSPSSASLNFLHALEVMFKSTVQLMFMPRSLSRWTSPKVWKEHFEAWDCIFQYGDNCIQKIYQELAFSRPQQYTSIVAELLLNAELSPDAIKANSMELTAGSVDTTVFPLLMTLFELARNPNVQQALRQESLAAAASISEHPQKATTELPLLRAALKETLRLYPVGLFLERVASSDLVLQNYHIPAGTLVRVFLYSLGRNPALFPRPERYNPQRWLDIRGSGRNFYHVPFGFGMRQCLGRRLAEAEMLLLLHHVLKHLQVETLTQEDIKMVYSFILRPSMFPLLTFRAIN
The experiment can be described thus: G-402 cellular enzyme assay, human CYP11B1 (cortisol release, HTRF). It counts as cell-based. As to conditions: G-402 cells, 1 μM Deoxycortisol.
Source text: as §1, §2, §3, §4, §5, §6, §7, §8

Usually EC50 stands for the concentration giving half of the maximal effect. The low end stands for an effect from little substance, the high end for a need for much substance. Turning to `COc1ccc2c(n1)C(C)(C)N(c1cncc(OC(F)F)c1)C2=O` [Example 295, 6-(5-Difluoromethoxy-pyridin-3-yl)-2-methoxy-7,7-dimethyl-6,7-dihydro-pyrrolo[3,4-b] pyridin-5-one], the figures for the EC50 at human CYP11B2 and on human CYP11B1 were 48.8 nM and 849 nM, respectively.

For `CCC(=O)N[C@@H]1CCCc2c1cncc2N1C(=O)c2cc(Cl)ccc2[C@@H]1CC` (single isomer, unassigned) [Example 313, N-[(R or S)-4-((S or R)-5-Chloro-1-ethyl-3-oxo-1,3-dihydro-isoindol-2-yl)-5,6,7,8-tetrahydro-isoquinolin-8-yl]-propionamide], the EC50 was determined as 118 nM at human CYP11B2 and 3540 nM at human CYP11B1.

As for `O=C1c2ccc(Cl)cc2CCN1c1cncc(C(O)C(F)(F)F)c1` (stereo not shown) [Example 18, 6-Chloro-2-[5-(2,2,2-trifluoro-1-hydroxy-ethyl)-pyridin-3-yl]-3,4-dihydro-2H-isoquinolin-1-one], the results for the 50% effective concentration (EC50) at human CYP11B2 and at human CYP11B1 were 58.6 nM and 507 nM, respectively.

For `O=C1c2ccc(Cl)cc2CCN1c1cncc(COC2CCC2)c1` [Example 203, 6-Chloro-2-(5-cyclobutoxymethyl-pyridin-3-yl)-3,4-dihydro-2H-isoquinolin-1-one], the values for the EC50 on human CYP11B2 and at human CYP11B1 were 22.4 nM and 212 nM, respectively.

Regarding `CCOC(=O)c1nccn1Cc1cncc(N2CCc3cc(Cl)ccc3C2=O)c1` [Example 162, 1-[5-(6-Chloro-1-oxo-3,4-dihydro-1H-isoquinolin-2-yl)-pyridin-3-ylmethyl]-1H-imidazole-2-carboxylic acid ethyl ester], the EC50 on human CYP11B2 was determined as 187 nM; on human CYP11B1, 2000 nM.

Take `CC1(C)c2cc(Cl)ccc2C(=O)N1c1cncc(CNC(=O)c2ccccn2)c1` [Example 434, Pyridine-2-carboxylic acid [5-(6-chloro-1,1-dimethyl-3-oxo-1,3-dihydro-isoindol-2-yl)-pyridin-3-ylmethyl]-amide]: the concentration for a half-maximal effect (EC50) on human CYP11B2 is 6.6 nM; at human CYP11B1, 228 nM.

For `CC1(C)c2nc(Cl)ccc2C(=O)N1c1cncc(F)c1` [Example 292, 2-Chloro-6-(5-fluoro-pyridin-3-yl)-7,7-dimethyl-6,7-dihydro-pyrrolo[3,4-b]pyridin-5-one], the concentration for a half-maximal effect (EC50) on human CYP11B2 was found to be 515 nM; on human CYP11B1, 36200 nM.

`CC(=O)N[C@@H]1CCCc2c1cncc2N1C(=O)c2ccc(Cl)cc2[C@H]1C1CC1` (single isomer, unassigned) [Example 372, N-[(R or S)-4-((R or S)-5-Chloro-3-cyclopropyl-1-oxo-1,3-dihydro-isoindol-2-yl)-5,6,7,8-tetrahydro-isoquinolin-8-yl]-acetamide]: the EC50 at human CYP11B2 was determined as 100 nM; on human CYP11B1 it was 22800 nM.

On to `COc1cncc(N2CC(C)(C)c3cc(Cl)ccc3C2=O)c1` [Example 103, 6-Chloro-2-(5-methoxy-pyridin-3-yl)-4,4-dimethyl-3,4-dihydro-2H-isoquinolin-1-one], for which the figures for the EC50 on human CYP11B2 and on human CYP11B1 were 564 nM and 11000 nM, respectively.

In the case of `CC(c1cncc(N2CCc3cc(Cl)ccc3C2=O)c1)n1ccnc1` (stereo not shown) [Example 270, 6-Chloro-2-[5-(1-imidazol-1-yl-ethyl)-pyridin-3-yl]-3,4-dihydro-2H-isoquinolin-1-one], the EC50 on human CYP11B2 was found to be 6.3 nM; at human CYP11B1, 27.9 nM.

Take `CS(=O)(=O)NC1CCCc2c1cncc2N1CCc2cc(Cl)ccc2C1=O` (single isomer, unassigned) [Example 324, N-((S or R)-6-Chloro-1-oxo-3,4,5′,6′,7′,8′-hexahydro-1H-[2,4′]biisoquinolinyl-8′-yl)-methanesulfonamide]: a half-maximal effect at human CYP11B2 (EC50) was put at 2810 nM.

On to `CCC(=O)N[C@H]1CCCc2c1cncc2N1C(=O)c2ccc(Cl)cc2[C@@H]1CC` (single isomer, unassigned) [Example 351, N-[(S or R)-4-((S or R)-5-Chloro-3-ethyl-1-oxo-1,3-dihydro-isoindol-2-yl)-5,6,7,8-tetrahydro-isoquinolin-8-yl]-propionamide], for which the EC50 on human CYP11B2 amounted to 3660 nM.

For `CN1CCN(Cc2ccncc2N2CCc3cc(Cl)ccc3C2=O)CC1` [Example 280, 6-Chloro-2-[4-(4-methyl-piperazin-1-ylmethyl)-pyridin-3-yl]-3,4-dihydro-2H-isoquinolin-1-one], at human CYP11B2, the EC50 is 1800 nM.

`CS(=O)(=O)NC1CCc2c1cncc2N1Cc2cc(Cl)ccc2C1=O` (single isomer, unassigned) [Example 335, N-[(S or R)-4-(5-Chloro-1-oxo-1,3-dihydro-isoindol-2-yl)-6,7-dihydro-5H-[2]pyrindin-7-yl]-methanesulfonamide] came in with a concentration giving a half-maximal response (EC50) at human CYP11B2 of 13800 nM.

`CC(C)(Nc1cncc(N2CCc3cc(Cl)ccc3C2=O)c1)C(=O)O` [Example 227, 2-[5-(6-Chloro-1-oxo-3,4-dihydro-1H-isoquinolin-2-yl)-pyridin-3-ylamino]-2-methyl-propionic acid] came in with an EC50 at human CYP11B2 of 4210 nM.

On human CYP11B2, `CCS(=O)(=O)NCc1cncc(N2CCc3cc(Cl)ccc3C2=O)c1` [Example 25, Ethanesulfonic acid [5-(6-chloro-1-oxo-3,4-dihydro-1H-isoquinolin-2-yl)-pyridin-3-ylmethyl]-amide] yielded a concentration for a half-maximal effect (EC50) of 401 nM.

In the case of `CCC(=O)N[C@@H]1CCc2c1cncc2N1C(=O)c2ccc(Cl)cc2[C@@H]1C` (single isomer, unassigned) [Example 375, N-[(R or S)-4-((S or R)-5-Chloro-3-methyl-1-oxo-1,3-dihydro-isoindol-2-yl)-6,7-dihydro-5H-[2]pyrindin-7-yl]-propionamide], on human CYP11B2, the EC50 amounted to 5620 nM.

For `CC(=O)N[C@@H]1CCCc2c1cncc2N1C(=O)c2ccc(Cl)cc2[C@@H]1C1CC1` (single isomer, unassigned) [Example 374, N-[(R or S)-4-((S or R)-5-Chloro-3-cyclopropyl-1-oxo-1,3-dihydro-isoindol-2-yl)-5,6,7,8-tetrahydro-isoquinolin-8-yl]-acetamide], a half-maximal response on human CYP11B2 (EC50) required 354 nM.

On human CYP11B1, `O=C(Nc1cncc(N2CCc3cc(Cl)ccc3C2=O)c1)C1CC1` [Example 248, Cyclopropanecarboxylic acid [5-(6-chloro-1-oxo-3,4-dihydro-1H-isoquinolin-2-yl)-pyridin-3-yl]-amide] displayed an EC50 of 2650 nM.

In the case of `CC1Cc2cc(Cl)ccc2C(=O)N1c1cccnc1` (stereo not shown) [Example 88, 6-Chloro-3-methyl-2-pyridin-3-yl-3,4-dihydro-2H-isoquinolin-1-one], on human CYP11B2, the EC50 was 761 nM.

In the case of `O=c1c2ccc(Cl)cc2ccn1-c1cncc(F)c1` [Example 54, 6-Chloro-2-(5-fluoro-pyridin-3-yl)-2H-isoquinolin-1-one], the midpoint of the response at human CYP11B2, the EC50, lay at 212 nM.

The values above are taken from patent publication US9133158B2, “Bicyclic dihydroisoquinoline-1-one derivatives” (Hoffmann-La Roche Inc., priority 2011, dated 2015).
